Reference: publication PMC6930570, “2-Arylidene-1-indandiones as Pleiotropic Agents with Antioxidant and Inhibitory Enzymes Activities” (Molecules, 2019)

Key:
[1] = Experimental lipophilicity as RM values by RPTLC; format: physicochemical; design: key: RM = log[(1/Rf) − 1], from Rf values by RPTLC; conditions: methanol/water 70/30, 24 °C, average of at least 5 measurements
Description: Lipophilicity is a physicochemical parameter indicating the relationship of a drug to its biological activity. It affects ligand-target binding interactions, solubility, ADME (absorption, distribution, bioavailability, metabolism, and elimination) and toxicological effects. RPTLC (reverse phase thin layer chromatography) method was used for the experimental determination, as RM values. The RPTLC method is considered a secure, rapid and appropriate method for expressing the lipophilic character of a compound (Table 1).
Reversed phase TLC (RPTLC) was performed on silica gel plates impregnated with 5% (v/v) liquid paraffin in light petroleum ether. The mobile phase was a methanol/water mixture (70/30, v/v). The plates were developed in closed chromatography tanks saturated with the mobile phase at 24 °C. Spots were detected under UV light. Five individual measurements of Rf values were recorded and used for the determination of RM using the equation RM = log [(1/Rf) − 1] [59, 60, 62] (Table 2).

trypsin = assay: In vitro inhibition of trypsin induced proteolysis; format: biochemical; conditions: bovine albumin substrate, no = no action under the experimental conditions
Protocol: Serine proteases are implicated in the pathophysiology of inflammatory diseases and trypsin is well known years ago [66]. Trypsin has been associated with host defense reactions and tissue damage. In this study, the novel derivatives have been evaluated towards trypsin and thrombin. Compounds 8 and 9 present high activity.
The Kunitz method was used after modification using bovine albumin was used as substrate for trypsin. In this assay, first 200 μL of 0.075 mg/mL trypsin and 780 μL of phosphate buffer pH 7.6 including the tested compounds (20 μL in DMSO, final concentration 100 μM) were pre-incubated at 37 °C for 20 min and then added 1 mL of albumin (stock solution 6 g/100 mL in phosphate buffer 0.1 M, pH 7.6) and incubated at 37 °C for 30 min. Secondly 1mLof 5% trichloroacetic acid was added to the incubated solution to stop the enzyme’s reaction and allowed to set at room temperature for 1 h. Then the solution was filtered, and the absorption of the filtrate was measured at 280 nm using salicylic acid as a reference compound [61] (Table 3).

[2] = Inhibition of linoleic acid peroxidation induced by AAPH; format: biochemical; conditions: no = no action under the experimental conditions
Description: In the water soluble 2,2′-azobis(2-amidinopropane) hydrochloride (AAPH) the free radicals are produced in vitro through spontaneous thermal decomposition resembling to lipid peroxidation in cells due to the action of the peroxyl radicals. […] Compounds 11, 5, 4 and 3 presented no activity under the experimental conditions. From the experimental results it can be concluded that the 3,5-di-tert-butyl-group offers protection against lipid peroxidation. Electronic parameters expressed by the highest occupied molecular orbital (HOMO) describes better the biological activity (Equation (2)). log AAPH % = −22.042(± 8.731) HOMO − 4.853 (2.622)(2) n = 8, r = 0.930, r^2 = 0.864, q^2 = 0.567, s = 0.146, F1,8 = 5.783, α = 0.1
The oxidation reaction was started with 2,2′-Azobis(2-amidinopropane) dihydrochloride (AAPH) as a free radical initiator. Linoleic acid sodium salt was oxidized at 234 nm to a conjugated diene hydroperoxide resulting an increased absorption. Trolox was used as reference compound (93%) (Table 3).

[3] = Reducing activity of the stable radical DPPH; format: biochemical
Protocol: The novel derivatives were studied for their interaction with the sTable 2,2-diphenyl-1-picrylhydrazyl free radical (DPPH)at concentration 50 µM, 100 µM and 200 µM after 20 and 60 min (Table 2). In this assay the DPPH radical is reduced transferring one electron from the antioxidant. Phenolic compounds such as catechol and derivatives generate phenoxide anions with strong antioxidant capacity. Nordihydroguaretic acid (NDGA), the reference compound acts by this mechanism. Compound 10 presents the highest scavenging activity at 100 µM after 20 min correlated with the presence of the phenolic OH. Compounds 3, 4, 5, 7 presented medium activities depending from time and concentration. The presence of the heteroatom O or S seems to influence the activity e.g., derivatives 1, 2, and 3. Replacement of phenyl ring (4) by a thienyl group (1) decreases antioxidant behavior. […] On the contrary the presence of the furyl ring (3) enhances reduction. Additionally, the presence of a π-dimethyl-amino group 6 reduces the scavenging ability whereas its absence in (5), increases the activity. The presence of two conjugated double bonds (5) leads to lower activity compared to the simpler compound 4. Compounds 9 and 10 present the highest milogP values (5.94). Both include a phenolic hydrogen in their structure. […] On the contrary in compound 9 steric reasons are possible to lead to a decrease. Lipophilicity seems to influence the interaction of compound 10.
To a solution of DPPH in absolute ethanol an equal volume of the compounds with final concentrations of 50, 100 and 200 µM from a stock solution of 10 mM (in 1% DMSO and ethanol) was added. After 20 and 60 min the absorbance was recorded at 517 nm at room temperature (Table 2).

soybean lipoxygenase = molecular target: T1, soybean lipoxygenase (Glycine max, UniProt P08170); assay: Soybean lipoxygenase inhibition in vitro; format: biochemical; conditions: sodium linoleate substrate, no = no action under the experimental conditions, read-out: LOX (% Inhibition 100 µM)
T1 construct: purchased Sigma Chemical, Co. (St. Louis)
T1 sequence (P08170 1-839): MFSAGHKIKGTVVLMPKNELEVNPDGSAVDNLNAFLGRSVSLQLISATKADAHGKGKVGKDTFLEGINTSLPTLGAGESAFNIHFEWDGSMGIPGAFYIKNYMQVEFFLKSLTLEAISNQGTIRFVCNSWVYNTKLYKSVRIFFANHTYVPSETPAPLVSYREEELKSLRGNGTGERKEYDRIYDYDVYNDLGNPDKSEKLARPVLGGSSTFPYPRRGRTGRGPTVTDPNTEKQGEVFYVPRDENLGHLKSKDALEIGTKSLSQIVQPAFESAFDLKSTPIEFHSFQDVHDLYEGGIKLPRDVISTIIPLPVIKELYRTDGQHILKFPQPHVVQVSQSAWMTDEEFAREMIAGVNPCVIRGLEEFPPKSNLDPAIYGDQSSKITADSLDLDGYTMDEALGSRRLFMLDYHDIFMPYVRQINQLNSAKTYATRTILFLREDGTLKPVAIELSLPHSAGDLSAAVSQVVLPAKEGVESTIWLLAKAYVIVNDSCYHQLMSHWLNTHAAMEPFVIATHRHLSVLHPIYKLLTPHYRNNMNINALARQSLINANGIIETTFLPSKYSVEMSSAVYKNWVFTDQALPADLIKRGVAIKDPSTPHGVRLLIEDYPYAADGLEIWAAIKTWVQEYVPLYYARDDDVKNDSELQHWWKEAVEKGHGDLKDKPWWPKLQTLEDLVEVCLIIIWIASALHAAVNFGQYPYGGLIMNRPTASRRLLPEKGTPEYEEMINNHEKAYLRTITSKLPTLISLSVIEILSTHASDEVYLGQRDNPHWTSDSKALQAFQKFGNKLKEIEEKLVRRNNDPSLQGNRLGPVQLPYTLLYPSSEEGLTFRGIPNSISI
Protocol: Thus, we used soybean LOX in our in vitro experiments.
In vitro study was performed as reported previously by our group. Sodium linoleate (0.1 mM) and 0.2 mL of enzyme solution (1/9 × 104 w/v in saline) were used for the incubation of the tested derivatives.

[4] = ABTS+. decolorization assay; format: biochemical; conditions: 1 min, no = no action under the experimental conditions
Description: The radical cation ABTS^+• is directly generated through potassium persulfate by oxidation with no participation of an intermediary radical and then the reduction is followed by adding electron-donating antioxidants. In this assay the radical is generated before adding the antioxidant (decolorization assay). […] It seems that lipophilicity influences the activity, since both are presenting high lipophilicity values. […] The radical cation ABTS^+• was generated from an ABTS stock solution in water (7 mM) which was mixed with potassium persulfate (2.45 mM) and left in the dark at room temperature for 12–16 h before use. The results are recorded after 1min of the mixing solutions at 734 nm and compared to the appropriate standard inhibitor Trolox (Table 3).

[5] = system: carrageenin-induced rat paw edema; assay: Inhibition of the carrageenin-induced rat paw edema (CPE); format: in vivo, Fisher 344 rats; conditions: Rattus norvegicus, ip; 0.01 mmol/kg body weight, intraperitoneally, 3.5 h after carrageenin; read-out: CPE % (reduction of the rat paw edema)
Description: Carrageenin-induced rat paw edema (CPE) model was used to study the in vivo anti-inflammatory activity of the tested derivatives and the results are presented in Table 3. […] Compounds 2, 7, 8, 10, and 12 presented small differences in their biological activity. The presence of the thienyl group as well as of the furyl leads to higher anti-inflammatory activity (1 and 3) while substitution with a phenyl group leads to two-fold decrease of the activity (28%).
Edema was induced in the right hind paw of Fisher 344 rats (150–200 g) by the intradermal injection of 0.1 mL 2% carrageenin in water. Both sexes were used while females pregnant were excluded. Each group was composed of 6–15 animals. The animals, which have been bred in our laboratory, were housed under standard conditions and received a diet of commercial food pellets and water ad libitum during the maintenance but they were entirely fasted during the experiment period. Our studies were in accordance with recognised guidelines on animal experimentation. (guidelines for the care and use of laboratory animals published by the Greek Government 160/1991, based on EU regulations 86/609). Rats were kept in the Centre of the School of Veterinary Medicine (EL54 BIO42), Aristotle University of Thessaloniki, which is registered by the official state veterinary authorities (presidential degree 56/2013, in harmonization with the European Directive 2010/63/EEC). The experimental protocols were approved by the Animal Ethics Committee of the Prefecture of Central Macedonia (no. 270079/2500). The tested compounds 0.01 mmol/kg body weight were suspended in water, with a few drops of Tween 80 and ground in a mortar before use and were given intraperitoneally simultaneously with the carrageenin injection. The rats were euthanized 3.5 h after carrageenin injection. The difference between the weight of the injected and uninjected paws was calculated for each animal. The change in paw weight was compared with that in control animals (treated with water) and expressed as a percent inhibition of the edema CPE % values […] [58, 59]. Indomethacin in 0.01 mmol/kg (47%). Values CPE % are the mean from two different experiments with a standard error of the mean less than 10% (Table 3).

bovine thrombin = molecular target: T2, bovine thrombin (Bos taurus, UniProt P00735); assay: In vitro inhibition of thrombin; format: biochemical; conditions: substrate tosyl-Gly-Pro-Arg-pNA, no = no action under the experimental conditions, read-out: TH% 100 µM (thrombin inhibition)
T2 construct: purchased Sigma Chemical, Co. (St. Louis)
Protocol: It is well known that indandione derivatives exert their anticoagulant activity indirectly by inhibiting prothrombin synthesis in the liver. […] Derivatives 1, 2, 5, 8, 9, 10, and 12 were tested in vitro as possible thrombin inhibitors. Among the tested derivatives compound 8 presented 100% inhibition followed by compounds […] and 10.
As a substrate tosyl-Gly-Pro-Arg-pNA acetate salt was used at 1 mM final concentration. Compounds were dissolved at a final concentration of […] in a Tris-buffer (0.05 M Tris, 0.154 M NaCl, ethanol 5%, pH = 8.0). Three minutes after the addition of bovine thrombin (2.5 unit/mg), the reaction was ended by adding 1 mL acetic acid 50%. The absorption of the released p-nitro-aniline was measured at 405 nm (Table 3). Warfarin and Inogatran were used as reference compounds.

RM (±SD) [1]	melting point	inhibition at 100 µM (soybean lipoxygenase)	inhibition at 100 µM (bovine thrombin)	SMILES	Iptr% 100 µM (inhibition of trypsin induced proteolysis) (trypsin)	AAPH% 100 µM (anti-lipid peroxidation) [2]	RA% 50 µM 20 min [3]	RA% 50 µM 60 min [3]	RA% 100 µM 20 min [3]	RA% 100 µM 60 min [3]	RA% 200 µM 20 min [3]	RA% 200 µM 60 min [3]	ABTS+. % 100 µM (decolorization activity) [4]	inhibition in vivo at 10 µmol/kg [5]
0.158 ± 0	165 to 167 °C	26.4%		O=C1C(=C/C=C\c2ccccc2)C(=O)c2ccccc21 [Compound 5, (Z)-2-(3-phenylallylidene)-1H-indene-1,3(2H)-dione]	do not present any activity and no	no activity and no	21%	25%	44%	48%	57%	72%	no	
−0.196 ± 0.02	223 to 225 °C	38.6%		O=C1C(=Cc2ccc3[nH]ccc3c2)C(=O)c2ccccc21 [Compound 11, (Z)-2-((1H-indol-5-yl)methylene)-1H-indene-1,3(2H)-dione]	6%	no activity and no	2%	2%	19%	19%	10%	10%	8%	
				COc1ccc2c(c1)c(CC(=O)O)c(C)n2C(=O)c1ccc(Cl)cc1 [Indomethacin, reference compound]										47%
			98%	N=C(N)NCCCNC(=O)[C@@H]1CCCCN1C(=O)[C@@H](CC1CCCCC1)NCC(=O)O [Inogatran, reference compound]										
				CC(Cc1ccc(O)c(O)c1)C(C)Cc1ccc(O)c(O)c1 (centres unmarked) [NDGA, Nordihydroguaretic acid, reference compound]			81%	83%	87%	93%	94%	96%		
				O=C(O)c1ccccc1O [Salycilic Acid, salicylic acid, reference compound]	54%									
				Cc1c(C)c2c(c(C)c1O)CCC(C)(C(=O)O)O2 (centres unmarked) [Trolox, reference compound]		93%							91%	
